Experimental data as given in US6737383B1, “Herbicidal oxadiazolidines” (priority 1999, dated 2004).

Columns and labels:
bedstraw = test: Test B pre/postemergence bedstraw; assay type: in vivo, Galium aparine
Method in brief: (§1)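 Test chemicals in a non-phytotoxic solvent mixture with surfactant were sprayed preemergence onto planted seeds and postemergence onto plants 2 to 18 cm tall (1- to 4-leaf stage). After twelve to sixteen days in a greenhouse, injury was visually rated against untreated controls from 0 (no effect) to 10 (complete control).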

blackgrass = test: Test B pre/postemergence blackgrass; assay type: in vivo, Alopecurus myosuroides
Method in brief: as §1

surinam grass = test: Test B pre/postemergence surinam grass; assay type: in vivo, Brachiaria decumbens
Method in brief: as §1

cocklebur = test: Test B pre/postemergence cocklebur; assay type: in vivo, Xanthium strumarium
Method in brief: as §1

corn = test: Test B pre/postemergence corn; assay type: in vivo, Zea mays
Method in brief: as §1

morningglory = test: Test B pre/postemergence morningglory; assay type: in vivo, Ipomoea hederacea
Method in brief: as §1

pigweed = test: Test B pre/postemergence pigweed; assay type: in vivo, Amaranthus retroflexus
Method in brief: as §1

rape = test: Test B pre/postemergence rape; assay type: in vivo, Brassica napus
Method in brief: as §1

soybean = test: Test B pre/postemergence soybean; assay type: in vivo, Glycine max
Method in brief: as §1

sugar beet = test: Test B pre/postemergence sugar beet; assay type: in vivo, Beta vulgaris
Method in brief: as §1

velvetleaf = test: Test B pre/postemergence velvetleaf; assay type: in vivo, Abutilon theophrasti
Method in brief: as §1

wild oat = test: Test B pre/postemergence wild oat; assay type: in vivo, Avena fatua
Method in brief: as §1

purple nutsedge = test: Test B pre/postemergence purple nutsedge; assay type: in vivo, Cyperus rotundus
Method in brief: as §1

rice = test: Test B flood test rice; assay type: in vivo, Oryza sativa
Method in brief: (§2)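 Plants were grown to the 2-leaf stage before treatment with test chemical, then held in a greenhouse for twelve to sixteen days. Injury was visually rated against untreated controls on a 0–10 scale, where 0 is no effect and 10 is complete control.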

smallflower flatsedge = test: Test B flood test smallflower flatsedge; assay type: in vivo, Cyperus difformis
Method in brief: as §2

bamyardgrass = test: Test B flood test barnyardgrass; assay type: in vivo, Echinochloa crus-galli
Method in brief: as §2

[1] = Postemergence, Rate 62 g/ha, scale of 0 to 10, 0 is no effect, 10 is complete control
[2] = Postemergence, Rate 125 g/ha, scale 0 to 10, 0 is no effect, 10 is complete control
[3] = Postemergence, Rate 500 g/ha, scale 0 to 10, 0 is no effect, 10 is complete control
[4] = Preemergence, Rate 62 g/ha, scale of 0 to 10 where 0 is no effect and 10 is complete control
[5] = Rate 250 g/ha, Postemergence, scale of 0 to 10 where 0 is no effect and 10 is complete control
[6] = Preemergence, Rate 125 g/ha, scale 0 to 10, 0 is no effect, 10 is complete control
[7] = Preemergence, Rate 500 g/ha, scale of 0 to 10 where 0 is no effect and 10 is complete control
[8] = Rate 62 g/ha, flood test species, Pre-emergence, visual evaluation after twelve to sixteen days
[9] = Rate 125 g/ha, under heading Pre-emergence, flood test species, visual evaluation after twelve to sixteen days
[10] = Rate 250 g/ha, Pre-emergence (flood test species), scale 0 to 10, 0 is no effect, 10 is complete control
[11] = Rate 500 g/ha, Pre-emergence section of Table B, 0 to 10 scale (0 no effect, 10 complete control)

CC(C)N(C(=O)n1oc(=O)n(CCC2OCCO2)c1=O)c1ccc(Cl)cc1 [Compound 531]
3: Plant response rating, Bedstraw (bedstraw; [3]) | Soybean plant response rating (soybean; [1]) | Soybean plant response rating (soybean; [2]) | Sugarbeets plant response rating (0 to 10 scale) (sugar beet; Preemergence, Rate 250 g/ha) | Plant response rating, Velvetleaf (velvetleaf; [3]) | Plant response rating, Nutsedge (purple nutsedge; [3])
0: Bedstraw plant response rating (bedstraw; [1]) | Bedstraw plant response rating (bedstraw; [2]) | Plant response rating, Bedstraw (bedstraw; [4]) | Bedstraw plant response rating (0 to 10 scale) (bedstraw; Preemergence, Rate 250 g/ha) | Plant response rating, Bedstraw (bedstraw; [5]) | Blackgrass plant response rating (blackgrass; [1]) | Blackgrass plant response rating (blackgrass; [2]) | Plant response rating, Blackgrass (blackgrass; [5]) | B. signalgrass plant response rating (surinam grass; [1]) | B. signalgrass plant response rating (surinam grass; [2]) | Plant response rating, B. signalgrass (surinam grass; [5]) | Cocklebur plant response rating (cocklebur; [1]) | Cocklebur plant response rating (cocklebur; [2]) | Plant response rating, Cocklebur (cocklebur; [4]) | Cocklebur plant response rating (cocklebur; [6]) | Cocklebur plant response rating (0 to 10 scale) (cocklebur; Preemergence, Rate 250 g/ha) | Cocklebur plant response rating (cocklebur; [7]) | Corn plant response rating (corn; [1]) | Corn plant response rating (corn; [2]) | Plant response rating, Corn (corn; [3]) | Plant response rating, Corn (corn; [4]) | Corn plant response rating (corn; [6]) | Corn plant response rating (0 to 10 scale) (corn; Preemergence, Rate 250 g/ha) | Corn plant response rating (corn; [7]) | Plant response rating, Corn (corn; [5]) | Plant response rating, Morningglory (morningglory; [4]) | Morningglory plant response rating (morningglory; [6]) | Morningglory plant response rating (0 to 10 scale) (morningglory; Preemergence, Rate 250 g/ha) | Morningglory plant response rating (morningglory; [7]) | Redroot pigweed plant response rating (pigweed; [1]) | Redroot pigweed plant response rating (pigweed; [2]) | Plant response rating, Redroot pigweed (pigweed; [3]) | Plant response rating, Redroot pigweed (pigweed; [4]) | Redroot pigweed plant response rating (pigweed; [6]) | Redroot pigweed plant response rating (0 to 10 scale) (pigweed; Preemergence, Rate 250 g/ha) | Plant response rating, Redroot pigweed (pigweed; [5]) | Rape plant response rating (rape; [1]) | Rape plant response rating (rape; [2]) | Plant response rating, Rape (rape; [4]) | Rape plant response rating (rape; [6]) | Rape plant response rating (0 to 10 scale) (rape; Preemergence, Rate 250 g/ha) | Plant response rating, Rape (rape; [5]) | Plant response rating, Soybean (soybean; [4]) | Soybean plant response rating (soybean; [6]) | Soybean plant response rating (0 to 10 scale) (soybean; Preemergence, Rate 250 g/ha) | Soybean plant response rating (soybean; [7]) | Sugarbeets plant response rating (sugar beet; [1]) | Sugarbeets plant response rating (sugar beet; [2]) | Plant response rating, Sugarbeets (sugar beet; [4]) | Plant response rating, Sugarbeets (sugar beet; [5]) | Velvetleaf plant response rating (velvetleaf; [1]) | Velvetleaf plant response rating (velvetleaf; [2]) | Plant response rating, Velvetleaf (velvetleaf; [4]) | Velvetleaf plant response rating (velvetleaf; [6]) | Plant response rating, Velvetleaf (velvetleaf; [5]) | Wild oats plant response rating (wild oat; [1]) | Wild oats plant response rating (wild oat; [2]) | Plant response rating, Wild oats (wild oat; [3]) | Plant response rating, Wild oats (wild oat; [4]) | Wild oats plant response rating (wild oat; [6]) | Wild oats plant response rating (0 to 10 scale) (wild oat; Preemergence, Rate 250 g/ha) | Plant response rating, Wild oats (wild oat; [5]) | Nutsedge plant response rating (purple nutsedge; [1]) | Nutsedge plant response rating (purple nutsedge; [2]) | Plant response rating, Nutsedge (purple nutsedge; [4]) | Nutsedge plant response rating (purple nutsedge; [6]) | Nutsedge plant response rating (0 to 10 scale) (purple nutsedge; Preemergence, Rate 250 g/ha) | Nutsedge plant response rating (purple nutsedge; [7]) | Plant response rating, Nutsedge (purple nutsedge; [5]) | Plant response rating, Rice (0 to 10 scale, 0 is no effect, 10 is complete control) (rice; [8]) | Rice plant response rating (0 to 10 scale, 0 is no effect, 10 is complete control) (rice; [9]) | Rice plant response rating (rice; [10]) | Rice plant response rating (rice; [11]) | Plant response rating, S. Flatsedge (0 to 10 scale, 0 is no effect, 10 is complete control) (smallflower flatsedge; [8]) | S. Flatsedge plant response rating (0 to 10 scale, 0 is no effect, 10 is complete control) (smallflower flatsedge; [9]) | S. Flatsedge plant response rating (smallflower flatsedge; [10]) | S. Flatsedge plant response rating (smallflower flatsedge; [11]) | Plant response rating, Barnyardgrass (0 to 10 scale, 0 is no effect, 10 is complete control) (bamyardgrass; [8]) | Barnyardgrass plant response rating (0 to 10 scale, 0 is no effect, 10 is complete control) (bamyardgrass; [9]) | Barnyardgrass plant response rating (bamyardgrass; [10]) | Barnyardgrass plant response rating (bamyardgrass; [11])
4: Plant response rating, B. signalgrass (surinam grass; [3]) | Morningglory plant response rating (morningglory; [2]) | Plant response rating, Morningglory (morningglory; [5]) | Sugarbeets plant response rating (sugar beet; [6])
2: Plant response rating, Blackgrass (blackgrass; [4]) | Plant response rating, B. signalgrass (surinam grass; [4]) | B. signalgrass plant response rating (surinam grass; [6]) | B. signalgrass plant response rating (0 to 10 scale, 0 is no effect, 10 is complete control) (surinam grass; Preemergence, Rate 250 g/ha) | Plant response rating, Cocklebur (cocklebur; [5]) | Morningglory plant response rating (morningglory; [1]) | Plant response rating, Rape (rape; [3]) | Velvetleaf plant response rating (0 to 10 scale) (velvetleaf; Preemergence, Rate 250 g/ha)
9: Blackgrass plant response rating (blackgrass; [6]) | Blackgrass plant response rating (0 to 10 scale) (blackgrass; Preemergence, Rate 250 g/ha)
6: Plant response rating, Blackgrass (blackgrass; [3]) | Plant response rating, Soybean (soybean; [3]) | Plant response rating, Soybean (soybean; [5]) | Plant response rating, Sugarbeets (sugar beet; [3])
5: Plant response rating, Cocklebur (cocklebur; [3]) | Velvetleaf plant response rating (velvetleaf; [7])
